We go through 13 compounds from patent US12180193B2, “Accelerating fibrosarcoma protein degrading compounds and associated methods of use” (Arvinas Operations, Inc., priority 2020, dated 2024).

In experiment [1] the target is T1, BRAF G466V (Homo sapiens, UniProt P15056, G466V).
T1 construct: expressed in transfected cells
The experiment can be described thus: Cellular assay of target protein degradation, T-Rex 293 cells stably transfected with HA-BRAF G466V (HA immunofluorescence, high content imaging). Type of experiment: cell-based. The conditions noted are these: T-Rex 293 HA-BRAF G466V; for DC50: half maximal degradation, read-out: BRaf G466V DC50; for Dmax: maximum degradation observed. The method, boiled down: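 Read-out is HA immunofluorescence by high content imaging, with Hoechst and phalloidin co-staining, giving DC50 and Dmax as a percentage of control. Compound exposure lasts 24 hours at 37° C over 30 nM to 3 pM in 0.1% DMSO, with doxycycline-induced HA-BRAF G466V.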

Experiment [2] addresses T2, BRAF V600E (Homo sapiens, UniProt P15056, V600E).
T2 construct: expressed in transfected cells
The experiment can be described thus: Cellular assay of target protein degradation, T-Rex 293 cells stably transfected with HA-BRAF_V600E (HA immunofluorescence, high content imaging). The format is cell-based. The conditions noted are these: T-Rex 293 HA-BRAF V600E; for DC50: half maximal degradation, read-out: BRaf V600E DC50; for Dmax: maximum degradation observed. In outline: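 Cells are plated with 1 ng/mL doxycycline and grown 24 h. Compound is then added (final 1 μM–0.1 nM, 0.1% DMSO) for another 24 h at 37 °C, followed by fixing, HA immunostaining and imaging to obtain DC50 and Dmax.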

Structures are written as SMILES.

T1 sequence (P15056 whole entry G466V): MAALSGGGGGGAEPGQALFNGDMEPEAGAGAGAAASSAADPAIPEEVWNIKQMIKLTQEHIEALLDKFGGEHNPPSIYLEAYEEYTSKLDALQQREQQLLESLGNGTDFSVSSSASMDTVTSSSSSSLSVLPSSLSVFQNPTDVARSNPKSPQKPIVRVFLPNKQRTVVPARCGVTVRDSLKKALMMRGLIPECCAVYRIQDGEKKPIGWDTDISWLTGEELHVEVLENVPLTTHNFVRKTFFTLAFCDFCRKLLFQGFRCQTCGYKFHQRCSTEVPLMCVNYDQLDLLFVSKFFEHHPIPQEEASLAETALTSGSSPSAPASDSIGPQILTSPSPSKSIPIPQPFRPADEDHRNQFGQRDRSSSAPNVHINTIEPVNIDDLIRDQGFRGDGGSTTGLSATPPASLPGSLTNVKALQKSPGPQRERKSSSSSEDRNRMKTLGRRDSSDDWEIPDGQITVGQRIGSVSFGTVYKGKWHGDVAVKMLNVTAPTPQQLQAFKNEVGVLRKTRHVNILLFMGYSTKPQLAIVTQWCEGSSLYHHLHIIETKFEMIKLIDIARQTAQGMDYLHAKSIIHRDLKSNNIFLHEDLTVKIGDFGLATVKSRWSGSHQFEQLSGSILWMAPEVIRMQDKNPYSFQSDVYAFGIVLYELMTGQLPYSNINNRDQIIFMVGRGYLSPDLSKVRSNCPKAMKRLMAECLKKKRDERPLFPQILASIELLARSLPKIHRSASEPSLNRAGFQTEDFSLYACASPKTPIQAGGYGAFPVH
T2 sequence (P15056 whole entry V600E): as the sequence (P15056 whole entry G466V) above, with V466G, V600E counted along it

One may read the DC50 as the midpoint of the concentration-degradation curve. In general, Dmax refers to the largest share of the target that was removed. A lower Dmax goes with shallow degradation. For the compound `O=C1CC[C@@H](N2Cc3cc(C[C@H](O)CN4CCC(c5ccc(-c6cnc7[nH]cc(C(=O)c8c(F)ccc(NS(=O)(=O)N9CC[C@@H](F)C9)c8F)c7c6)cc5)CC4)ccc3C2=O)C(=O)N1` [Compound 116, (3R)-N-{3-[5-(4-{1-[(2S)-3-{2-[(3R)-2,6-dioxopiperidin-3-yl]-1-oxo-2,3-dihydro-1H-isoindol-5-yl}-2-hydroxypropyl]piperidin-4-yl}phenyl)-1H-pyrrolo[2,3-b]pyridine-3-carbonyl]-2,4-difluorophenyl}-3-fluoropyrrolidine-1-sulfonamide], in experiment [1], the DC50 was less than 1 nM and the Dmax lay in the range of 35 to 70%. In experiment [2], the DC50 fell in the range of 5 to 50 nM and the Dmax is 35 to 70%.

`O=C1CCC(N2Cc3cc(N4CC5(CN(CCOc6ncc(-c7cnc8[nH]cc(C(=O)c9c(F)ccc(NS(=O)(=O)N%10CC[C@@H](F)C%10)c9F)c8c7)cn6)C5)C4)ccc3C2=O)C(=O)N1` (stereo partly drawn) [Compound 117, (3R)-N-(3-{5-[2-(2-{6-[2-(2,6-dioxopiperidin-3-yl)-1-oxo-2,3-dihydro-1H-isoindol-5-yl]-2,6-diazaspiro[3.3]heptan-2-yl}ethoxy)pyrimidin-5-yl]-1H-pyrrolo [2,3-b]pyridine-3-carbonyl}-2,4-difluorophenyl)-3-fluoropyrrolidine-1-sulfonamide]: in experiment [1], the DC50 is 1 to 10 nM and the Dmax was greater than 70%. In addition, in experiment [2], the DC50 fell in the range of 50 to 500 nM and the Dmax was 35 to 70%.

With `O=C1CCC(N2Cc3cc(C4CCN(C[C@@H](O)Cc5ccc(-c6cnc7[nH]cc(C(=O)c8c(F)ccc(NS(=O)(=O)N9CC[C@@H](F)C9)c8F)c7c6)cc5)CC4)ccc3C2=O)C(=O)N1` (stereo partly drawn) [Compound 118, (3R)-N-[3-(5-{4-[(2S)-3-{4-[2-(2,6-dioxopiperidin-3-yl)-1-oxo-2,3-dihydro-1H-isoindol-5-yl]piperidin-1-yl}-2-hydroxypropyl]phenyl}-1H-pyrrolo[2,3-b]pyridine-3-carbonyl)-2,4-difluorophenyl]-3-fluoropyrrolidine-1-sulfonamide], the values for the DC50 in experiment [1] and in experiment [2] were 1 to 10 nM and greater than 500 nM, respectively. Moreover, the Dmax in experiment [1] and in experiment [2] was greater than 70% throughout.

Consider `O=C1CCC(N2Cc3cc(C4CCN(CC5(O)CCN(c6ccc(-c7cnc8[nH]cc(C(=O)c9c(F)ccc(NS(=O)(=O)N%10CC[C@@H](F)C%10)c9F)c8c7)cc6)CC5)CC4)ccc3C2=O)C(=O)N1` (stereo partly drawn) [Compound 119, (3R)-N-[3-(5-{4-[4-({4-[2-(2,6-dioxopiperidin-3-yl)-1-oxo-2,3-dihydro-1H-isoindol-5-yl]piperidin-1-yl}methyl)-4-hydroxypiperidin-1-yl]phenyl}-1H-pyrrolo[2,3-b]pyridine-3-carbonyl)-2,4-difluorophenyl]-3-fluoropyrrolidine-1-sulfonamide], for which the DC50 in experiment [1] was less than 1 nM; in experiment [2], less than 5 nM. Also, the Dmax in experiment [1] and in experiment [2] was 35 to 70% in each case.

In the case of `O=C1CCC(N2Cc3cc(OCCCCN4CCN(c5ccc(-c6cnc7[nH]cc(C(=O)c8c(F)ccc(NS(=O)(=O)N9CC[C@@H](F)C9)c8F)c7c6)cn5)CC4)ccc3C2=O)C(=O)N1` (stereo partly drawn) [Compound 120, (3R)-N-[3-(5-{6-[4-(4-{[2-(2,6-dioxopiperidin-3-yl)-1-oxo-2,3-dihydro-1H-isoindol-5-yl]oxy}butyl)piperazin-1-yl]pyridin-3-yl}-1H-pyrrolo[2,3-b]pyridine-3-carbonyl)-2,4-difluorophenyl]-3-fluoropyrrolidine-1-sulfonamide], in experiment [1], the DC50 fell in the range of 1 to 10 nM and the Dmax is greater than 70%. For the same compound, in experiment [2], the DC50 was in the range of 5 to 50 nM and the Dmax was 35 to 70%.

For the compound `O=C1CCC(N2Cc3cc(OCCCCN4CCN(c5ncc(-c6cnc7[nH]cc(C(=O)c8c(F)ccc(NS(=O)(=O)N9CC[C@@H](F)C9)c8F)c7c6)cn5)CC4)ccc3C2=O)C(=O)N1` (stereo partly drawn) [Compound 121, (3R)-N-[3-(5-{2-[4-(4-{[2-(2,6-dioxopiperidin-3-yl)-1-oxo-2,3-dihydro-1H-isoindol-5-yl]oxy}butyl)piperazin-1-yl]pyrimidin-5-yl}-1H-pyrrolo[2,3-b]pyridine-3-carbonyl)-2,4-difluorophenyl]-3-fluoropyrrolidine-1-sulfonamide], in experiment [1], the DC50 lay within 1 to 10 nM and the Dmax is greater than 70%. In experiment [2], the DC50 was in the range of 5 to 50 nM and the Dmax fell in the range of 35 to 70%.

`O=C1CCC(N2Cc3cc(OC[C@@H](O)CN4CC5(C4)CN(c4ccc(-c6cnc7[nH]cc(C(=O)c8c(F)ccc(NS(=O)(=O)N9CC[C@@H](F)C9)c8F)c7c6)cc4)C5)ccc3C2=O)C(=O)N1` (stereo partly drawn) [Compound 122, (3R)-N-{3-[5-(4-{6-[(2S)-3-{[2-(2,6-dioxopiperidin-3-yl)-1-oxo-2,3-dihydro-1H-isoindol-5-yl]oxy}-2-hydroxypropyl]-2,6-diazaspiro[3.3]heptan-2-yl}phenyl)-1H-pyrrolo[2,3-b]pyridine-3-carbonyl]-2,4-difluorophenyl}-3-fluoropyrrolidine-1-sulfonamide]: in experiment [1], the DC50 lay within 1 to 10 nM and the Dmax was greater than 70%. Besides, in experiment [2], the DC50 lay in the range of 5 to 50 nM and the Dmax lay within 35 to 70%.

Turning to `O=C1CC[C@H](N2Cc3cc(OC[C@H](O)CN4CC5(C4)CN(c4ccc(-c6cnc7[nH]cc(C(=O)c8c(F)ccc(NS(=O)(=O)N9CC[C@@H](F)C9)c8F)c7c6)cc4)C5)ccc3C2=O)C(=O)N1` [Compound 123, (3R)—N-[3-[5-[4-[6-[(2R)-3-[2-[(3S)-2,6-dioxo-3-piperidyl]-1-oxo-isoindolin-5-yl]oxy-2-hydroxy-propyl]-2,6-diazaspiro[3.3]heptan-2-yl]phenyl]-1H-pyrrolo[2,3-b]pyridine-3-carbonyl]-2,4-difluoro-phenyl]-3-fluoro-pyrrolidine-1-sulfonamide], the values for the DC50 in experiment [1] and in experiment [2] were 1 to 10 nM and 5 to 50 nM, respectively. For the same compound, the Dmax in experiment [1] was greater than 70%; in experiment [2], 35 to 70%.

As for `O=C1CC[C@@H](N2Cc3cc(OC[C@H](O)CN4CC5(C4)CN(c4ccc(-c6cnc7[nH]cc(C(=O)c8c(F)ccc(NS(=O)(=O)N9CC[C@@H](F)C9)c8F)c7c6)cc4)C5)ccc3C2=O)C(=O)N1` [Compound 124, (3R)—N-[3-[5-[4-[6-[(2R)-3-[2-[(3R)-2,6-dioxo-3-piperidyl]-1-oxo-isoindolin-5-yl]oxy-2-hydroxy-propyl]-2,6-diazaspiro[3.3]heptan-2-yl]phenyl]-1H-pyrrolo[2,3-b]pyridine-3-carbonyl]-2,4-difluoro-phenyl]-3-fluoro-pyrrolidine-1-sulfonamide], in experiment [1], the DC50 is 1 to 10 nM and the Dmax is greater than 70%. Further, in experiment [2], the DC50 was in the range of 5 to 50 nM and the Dmax lay in the range of 35 to 70%.

Turning to `O=C1CCC(N2Cc3cc(C4CCN(C[C@@H]5CCN(c6ccc(-c7cnc8[nH]cc(C(=O)c9c(F)ccc(NS(=O)(=O)N%10CC[C@@H](F)C%10)c9F)c8c7)cc6)C[C@@H]5F)CC4)ccc3C2=O)C(=O)N1` (stereo partly drawn) [Compound 125, (3R)-N-[3-(5-{4-[(3R,4S)-4-({4-[2-(2,6-dioxopiperidin-3-yl)-1-oxo-2,3-dihydro-1H-isoindol-5-yl]piperidin-1-yl}methyl)-3-fluoropiperidin-1-yl]phenyl}-1H-pyrrolo[2,3-b]pyridine-3-carbonyl)-2,4-difluorophenyl]-3-fluoropyrrolidine-1-sulfonamide], the 50% degradation concentration (DC50) in experiment [1] fell in the range of 1 to 10 nM; in experiment [2], 5 to 50 nM. Besides, the Dmax is greater than 70% in experiment [1] and 35 to 70% in experiment [2].

Consider `CN(CCN1CCN(c2ccc(-c3cnc4[nH]cc(C(=O)c5c(F)ccc(NS(=O)(=O)N6CC[C@@H](F)C6)c5F)c4c3)cc2)CC1)[C@H]1C[C@@H](Oc2ccc3c(c2)CN(C2CCC(=O)NC2=O)C3=O)C1` (stereo partly drawn) [Compound 126, (3R)-N-[2,4-difluoro-3-(5-{4-[4-(2-{methyl[(1s,3s)-3-{[2-(2,6-dioxopiperidin-3-yl)-1-oxo-2,3-dihydro-1H-isoindol-5-yl]oxy}cyclobutyl]amino}ethyl)piperazin-1-yl]phenyl}-1H-pyrrolo[2,3-b]pyridine-3-carbonyl)phenyl]-3-fluoropyrrolidine-1-sulfonamide], for which the DC50 in experiment [1] was 1 to 10 nM; in experiment [2] it was 5 to 50 nM. For the same compound, the Dmax in experiment [1] and in experiment [2] was 35 to 70% in each case.

On to `O=C1CCC(N2Cc3cc(C4CCN(CCC5CCN(c6ccc(-c7cnc8[nH]cc(C(=O)c9c(F)ccc(NS(=O)(=O)N%10CC[C@@H](F)C%10)c9F)c8c7)cc6)CC5)CC4)ccc3C2=O)C(=O)N1` (stereo partly drawn) [Compound 127, (3R)-N-[3-(5-{4-[4-(2-{4-[2-(2,6-dioxopiperidin-3-yl)-1-oxo-2,3-dihydro-1H-isoindol-5-yl]piperidin-1-yl}ethyl)piperidin-1-yl]phenyl}-1H-pyrrolo[2,3-b]pyridine-3-carbonyl)-2,4-difluorophenyl]-3-fluoropyrrolidine-1-sulfonamide], for which the results for the DC50 in experiment [1] and in experiment [2] were 1 to 10 nM and less than 5 nM, respectively. Further, the Dmax in experiment [1] is greater than 70%; in experiment [2], less than 35%.

On to `O=C1CC[C@H](N2Cc3cc(C[C@@H](O)CN4CC5(C4)CN(c4ccc(-c6cnc7[nH]cc(C(=O)c8c(F)ccc(NS(=O)(=O)N9CC[C@@H](F)C9)c8F)c7c6)cc4)C5)ccc3C2=O)C(=O)N1` [Compound 128, (3R)-N-{3-[5-(4-{6-[(2R)-3-{2-[(3S)-2,6-dioxopiperidin-3-yl]-1-oxo-2,3-dihydro-1H-isoindol-5-yl}-2-hydroxypropyl]-2,6-diazaspiro[3.3]heptan-2-yl}phenyl)-1H-pyrrolo[2,3-b]pyridine-3-carbonyl]-2,4-difluorophenyl}-3-fluoropyrrolidine-1-sulfonamide], for which, in experiment [1], the DC50 is 1 to 10 nM and the Dmax is greater than 70%. Moreover, in experiment [2], the DC50 fell in the range of 5 to 50 nM and the Dmax lay within 35 to 70%.
